≈ marks a conversion by molar mass, not a printed value. Calls of active or inactive are those of the source. The calls are words filed in the database; no cut-off is given here.
How the values were obtained:
Escherichia coli [1] = test: Antibacterial activity against Escherichia coli KAM32 harboring Staphylococcus aureus cloned pSP72 lmrS by broth microdilution method; format: functional
Escherichia coli [2] = test: Antibacterial activity against Escherichia coli KAM32 harboring pSP72 by broth microdilution method; format: functional
Escherichia coli [3] = test: Ratio of MIC for Escherichia coli KAM32 harboring cloned pSP72 lmrS to MIC for Escherichia coli KAM32 harboring pSP72; format: functional
Escherichia coli [4] = test: Antibacterial activity against Escherichia coli KAM32 harboring Staphylococcus aureus cloned pSP72 lmrS by broth microdilution method in presence of efflux pump inhibitor CCCP; format: functional
Escherichia coli [5] = test: Inhibition of ethidium bromide accumulation in Escherichia coli KAM32 harboring pSP72 at 100 uM by fluorescence spectrophotometer; format: functional, organism-based
Staphylococcus aureus [6] = test: Inhibition of Staphylococcus aureus LmrS expressed in Escherichia coli KAM32 harboring pSP72 assessed as decrease of ethidium bromide efflux at 0.01 mM after 6 mins by fluorescence spectrophotometer relative to control
Staphylococcus aureus [7] = test: Inhibition of Staphylococcus aureus LmrS expressed in Escherichia coli KAM32 harboring pSP72 assessed as decrease of ethidium bromide accumulation at 100 uM by fluorescence spectrophotometer relative to control

| Molecule | MIC (Escherichia coli [1]) | MIC (Escherichia coli [2]) | MIC ratio (Escherichia coli [3]) | MIC (Escherichia coli [4]) | inhibition (Escherichia coli [5]) | inhibition (Staphylococcus aureus [6]) | inhibition (Staphylococcus aureus [7]) |
| --- | --- | --- | --- | --- | --- | --- | --- |
| [Cl-].c1ccc([P+](c2ccccc2)(c2ccccc2)c2ccccc2)cc1 [TETRAPHENYLPHOSPHONIUM CHLORIDE] | 156 µg/mL | 9.76 µg/mL | 16 |  |  |  |  |
| COc1cc(Cc2cnc(N)nc2N)cc(OC)c1OC [TRIMETHOPRIM] | 0.16 µg/mL (≈ 0.551 µM) | 0.02 µg/mL (≈ 0.0689 µM) | 8.2 |  |  |  |  |
| CN[C@@H]1[C@H](O[C@H]2[C@H](O[C@H]3[C@H](O)[C@@H](O)[C@H](N=C(N)N)[C@@H](O)[C@@H]3N=C(N)N)O[C@@H](C)[C@]2(O)C=O)O[C@@H](CO)[C@H](O)[C@H]1O [STREPTOMYCIN] | 6.25 µg/mL (≈ 10.7 µM) | 0.78 µg/mL (≈ 1.34 µM) | 8 |  |  |  |  |
| CC(=O)O[C@H]1C[C@@]2(C)[C@@H](C[C@@H](O)[C@H]3[C@@]4(C)CC[C@@H](O)[C@@H](C)[C@@H]4CC[C@@]32C)/C1=C(\CCC=C(C)C)C(=O)O [FUSIDIC ACID] | 250 µg/mL (≈ 484 µM) | 31.2 µg/mL (≈ 60.5 µM) | 8 | 62.5 µg/mL |  |  |  |
| N#CC(C#N)=NNc1cccc(Cl)c1 [CARBONYL CYANIDE M-CHLOROPHENYLHYDRAZONE] |  | 8 µg/mL (≈ 39.1 µM) |  |  | inactive | 40% |  |
| CCC[C@@H]1C[C@@H](C(=O)N[C@@H]([C@H]2O[C@H](SC)[C@H](O)[C@@H](O)[C@H]2O)[C@@H](C)O)N(C)C1 [LINCOMYCIN] | 125 µg/mL (≈ 307 µM) | 31.2 µg/mL (≈ 76.9 µM) | 4 |  |  |  |  |
| COC(=O)[C@H]1[C@H]2C[C@@H]3c4[nH]c5cc(OC)ccc5c4CCN3C[C@H]2C[C@@H](OC(=O)c2cc(OC)c(OC)c(OC)c2)[C@@H]1OC [RESERPINE] |  | 62 µg/mL (≈ 102 µM) |  |  |  |  |  |
| CC[n+]1c(-c2ccccc2)c2cc(N)ccc2c2ccc(N)cc21.[Br-] [HOMIDIUM BROMIDE] | 62.5 µg/mL | 7.8 µg/mL | 8 |  |  |  | 30% |
| CC(=O)NC[C@H]1CN(c2ccc(N3CCOCC3)c(F)c2)C(=O)O1 [LINEZOLID] | 31.2 µg/mL (≈ 92.6 µM) | 1.95 µg/mL (≈ 5.78 µM) | 16 |  |  |  |  |
| CCCCCCCCCCCCOS(=O)(=O)[O-].[Na+] [SODIUM LAURYL SULFATE] | 250 µg/mL | 31.2 µg/mL | 8 |  |  |  |  |
| CN(C)[C@@H]1C(O)=C(C(N)=O)C(=O)[C@@]2(O)C(O)=C3C(=O)c4c(O)cccc4[C@@](C)(O)[C@H]3[C@H](O)[C@@H]12 [OXYTETRACYCLINE] | 0.39 µg/mL (≈ 0.847 µM) | 0.1 µg/mL (≈ 0.217 µM) | 4 |  |  |  |  |
| COc1c(N2CCNC(C)C2)c(F)cc2c(=O)c(C(=O)O)cn(C3CC3)c12 (stereo unspecified) [GATIFLOXACIN] | 0.08 µg/mL (≈ 0.213 µM) | 0.02 µg/mL (≈ 0.0533 µM) | 4.1 |  |  |  |  |
| COc1cc(NS(=O)(=O)c2ccc(N)cc2)nc(OC)n1 [SULFADIMETHOXINE] | 9.76 µg/mL (≈ 31.4 µM) | 4.88 µg/mL (≈ 15.7 µM) | 2 |  |  |  |  |
| CC[C@H]1OC(=O)[C@H](C)[C@@H](O[C@H]2C[C@@](C)(OC)[C@@H](O)[C@H](C)O2)[C@H](C)[C@@H](O[C@@H]2O[C@H](C)C[C@H](N(C)C)[C@H]2O)[C@](C)(O)C[C@@H](C)C(=O)[C@H](C)[C@@H](O)[C@]1(C)O [ERYTHROMYCIN] | 15.6 µg/mL (≈ 21.3 µM) | 1.9 µg/mL (≈ 2.59 µM) | 8.2 |  |  |  |  |
| CO[C@H]1/C=C/O[C@@]2(C)Oc3c(C)c(O)c4c(O)c(c(/C=N/N5CCN(C)CC5)c(O)c4c3C2=O)NC(=O)/C(C)=C\C=C\[C@H](C)[C@H](O)[C@@H](C)[C@@H](O)[C@@H](C)[C@H](OC(C)=O)[C@@H]1C [RIFAMPIN] | 3.9 µg/mL (≈ 4.74 µM) | 1.9 µg/mL (≈ 2.31 µM) | 2.1 |  |  |  |  |
| Cetyltrimethylammonium bromide | 7.8 µg/mL | 3.9 µg/mL |  |  |  |  |  |
| CS(=O)(=O)c1ccc([C@@H](O)[C@@H](CF)NC(=O)C(Cl)Cl)cc1 [FLORFENICOL] | 3.13 µg/mL (≈ 8.74 µM) | 0.39 µg/mL (≈ 1.09 µM) | 8 |  |  |  |  |
| O=C(N[C@H](CO)[C@H](O)c1ccc([N+](=O)[O-])cc1)C(Cl)Cl [CHLORAMPHENICOL] | 3.13 µg/mL (≈ 9.69 µM) | 0.39 µg/mL (≈ 1.21 µM) | 8 |  |  |  |  |
| NC[C@H]1O[C@H](O[C@H]2[C@H](O)[C@@H](O[C@H]3O[C@H](CO)[C@@H](O)[C@H](N)[C@H]3O)[C@H](N)C[C@@H]2N)[C@H](O)[C@@H](O)[C@@H]1O [KANAMYCIN] | 125 µg/mL (≈ 258 µM) | 15.6 µg/mL (≈ 32.3 µM) | 8 |  |  |  |  |
